Source: patent publication US5420289A, “Substituted indole-, indene-, pyranoindole- and tetrahydrocarbazole-alkanoic acid derivatives as inhibitors of PLA2 and lipoxygenase” (American Home Products Corporation, priority 1993, dated 1995)

Columns and labels:
[1] = system: synthesis of LTB4 by rat glycogen-elicited polymorphonuclear leukocytes (PMN); assay: inhibition of LTB4 synthesis by rat glycogen-elicited PMN (Example 72); format: cell-based, rat (female Wistar); details: Leukocyte, at 10 mM, negative number denotes potentiation
Outline: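 Peritoneal PMNs from female Wistar rats 18-24 h after i.p. glycogen, 2.0×10^7 cells/mL in HBSS with Ca/Mg and 10 mM L-cysteine; compound preincubated 10 min at 37° C, then A23187 […] added for 10 min. Supernatant [3H]-LTB4 quantified by radio-HPLC versus drug-free stimulated cells; percent inhibition or IC50.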

[2] = system: cyclooxygenase (PGE2 synthesis) in rat polymorphonuclear leukocytes (PMN); assay: inhibition of PGE2 synthesis (cyclooxygenase) by rat glycogen-elicited PMN (Example 73); format: cell-based, rat (female Wistar); details: Leukocyte, at 10 mM, * (negative) denotes a potentiation, read-out: % Inhibition (PGE2 synthesis)
Outline: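 Glycogen-elicited peritoneal PMNs from female Wistar rats, 2.0×10^7 cells/mL in HBSS with Ca/Mg and 10 mM L-cysteine, preincubated with drug 10 min at 37° C. Stimulated 10 min with A23187 plus [3H]-AA and unlabeled AA (stocks 1 mM); supernatant [3H]-PGE2 measured by reverse-phase HPLC co-chromatographed with reference standard.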

[3] = system: lipoxygenase pathway (LTC4); assay: in vivo murine zymosan peritonitis assay, LTC4 (Example 76); design: species or system mouse (male CD-1); details: 50 mg/kg p.o.; negative values denote potentiation
Procedure: (§1) The compounds of the invention are evaluated for their ability to inhibit the lipoxygenase and/or cyclooxygenase pathways of arachidonic acid metabolism in the in vivo murine zymosan peritonitis assay.
(§2) This assay is carried out as follows:
(§3) Male CD-1 mice (8 weeks old) are placed in plastic boxes in groups of six. Animals are injected with 1 mL i.p. of either 1% zymosan in pyrogen free 0.9% saline or saline (unstimulated control). Compounds are dosed orally 1 hour prior to zymosan injection. Twenty minutes after zymosan injection, the mice are asphyxiated by CO2 inhalation and tile peritoneal cavity is lavaged with 2 mL ice cold Hanks Balanced Salt Solution (HBSS) without CaCl2, MgSO4 ·7H2 O and MgCl2 ·6H2 O. Peritoneal lavage fluid from each mouse is removed by syringe and placed in 5 mL plastic test tubes put on ice and volume is noted. […]
(§4) The total metabolite level in lavage fluid/mouse is calculated and the significance is determined by a one-way analysis of variance with LSD comparisons to control (p<0.05). Drug effects are expressed as a percent change from control values.

[4] = system: cyclooxygenase pathway (6-keto-PGF1a); assay: in vivo murine zymosan peritonitis assay, 6-keto-PGF1a (Example 76); design: species or system mouse (male CD-1); details: 50 mg/kg p.o.; negative values denote potentiation
Procedure: as §1, §2, §3, §4

carrageenan paw edema = assay: rat carrageenan paw edema assay (Example 78); format: in vivo, rat (male Sprague-Dawley); details: 50 mg/kg peroral; 3 hours after carrageenan
Procedure: The compounds of the invention are further tested in the rat carrageenan paw edema assay to determine their ability to inhibit the acute inflammatory response.
This assay is carried out as follows: 140-180 g Male Sprague-Dawley rats, in groups of 6 animals are injected subcutaneously in the right paw with 0.1 mL of 1% carrageenan at zero time. Mercury plethysmographic readings (mL) of the paw are made at zero time and 3 hours later. Test compounds are suspended or dissolved in 0.5% methylcellulose and given perorally 1 hour prior to carrageenan administration.
The increase in paw volume (edema in mL) produced by the carrageenan is measured. Paw edema is calculated (3 hour volume minus zero time volume), and percent inhibition of edema is determined. Unpaired Student's t-test is used to determine statistical significance.

Row | Structure (SMILES) | inhibition at 10000 µM [1] | inhibition at 10000 µM [2] | % Inhibition LTC4 [3] | % Inhibition 6-keto-PGF [4] | % Inhibition 50 mg/kg (peroral) (carrageenan paw edema)
1 | CCC1(CC(=O)O)CCCc2c1[nH]c1ccc(OCc3ccc4ccccc4n3)cc21 (stereo not shown) [Example 11, 1-Ethyl-2,3,4,9-tetrahydro-6-(2-quinolinylmethoxy)-1H-carbazole-1-acetic acid] | 95% | 80% | -49% | 47% | +1%
2 | CC1(CC(=O)O)OCCc2c1[nH]c1ccc(OCc3ccc4ccccc4n3)cc21 (stereo not shown) [Example 10, 1-Methyl-1,3,4,9-tetrahydro-6-(2-quinolinylmethoxy)pyrano[3.4-b]indole-1-acetic acid] | 91% | -41% | 11% | -5% | 48%
